From US9422396B2, “Biodegradable elastomers prepared by the condensation of an organic di-, tri- or tetra-carboxylic acid and an organic diol” (QATAR UNIVERSITY, priority 2007, dated 2016)

Tests used:
[1] = In vitro hydrolytic degradation of poly(diol-tricarballylate) elastomers in PBS (pH 7.4); assay type: physicochemical
Experimental: In order to examine the influence of chain length on the degradation rate and the changes in the mechanical properties of the elastomer during the in vitro degradation, four different elastomers, based on varying chain lengths of alkylene diol (C6-C12), were prepared and tested. FIGS. 21a and 21b show the weight loss and water absorption data for the four prepared elastomers.
Young's modulus (E) and the ultimate tensile stress (σ) decreased in a nearly linear fashion with time as indicative of zero-order degradation mechanism. This linear decrease was observed regardless of the network compositions, the crosslinking density and the initial E and σ of the elastomers. […] No significant change in the ultimate elongation was found up to 12 weeks of the in vitro degradation time. […] It is only with surface erosion degradation pattern that the elastomers can maintain their mechanical properties unchanged^41. […] The above observations illustrates that the changes in the mechanical properties of these networks took place in two stages. The first stage was characterized by a rapid mechanical weakening (rapid decrease in E and a) which lasted for up to 4 weeks. […] This is in correlation with the trend noted for the weight loss and water absorption reported above (FIG. 21).
Through a linear regression of the zero-order degradation kinetics of the data in FIGS. 23a and 23b using equations (1) & (2), the rate constants were calculated and are listed in Table 1. Et=E0−KEt. (1) σt=σ0−Kσt. (2) In equations 1 & 2, t denoted the immersion time (in weeks) in PBS. The values of E0 and σ0 corresponded to the intercepts obtained from extrapolating the zero-order fitted line. Kσ and KE represented the zero-order degradation constants for […].

[2] = Stability of pilocarpine nitrate in the release medium; assay type: physicochemical; conditions: over a period of one week
Experimental: Before running the release studies, the stability of PCN in the release medium was tested by monitoring the changes in the concentration of a prepared stock solution of PCN in each of them over a period of one week.

Compound: poly(1,10 decane diol-co-tricarballylate) [PDTC]
- KE (zero-order degradation constant, Young's modulus) [1]: 0.0237 MPa/week
- Kσ (zero-order degradation constant, ultimate tensile stress) [1]: 0.0114 MPa/week

Compound: CC[C@@H]1C(=O)OC[C@@H]1Cc1cncn1C [PN, Pilocarpine Nitrate]
- Change in concentration of stock solution in the release medium [2]: no significant changes from its initial concentration

Compound: poly(1,12 dodecane diol-co-tricarballylate) [PDDTC]
- KE (zero-order degradation constant, Young's modulus) [1]: 0.0080 MPa/week
- Kσ (zero-order degradation constant, ultimate tensile stress) [1]: 0.0018 MPa/week

Compound: poly(1,8 octane diol-co-tricarballylate) [POTC]
- KE (zero-order degradation constant, Young's modulus) [1]: 0.0301 MPa/week
- Kσ (zero-order degradation constant, ultimate tensile stress) [1]: 0.0124 MPa/week
